According to publication PMC8342319, “Predicting blood-to-plasma concentration ratios of drugs from chemical structures and volumes of distribution in humans” (Molecular Diversity, 2021):
Where two headings read alike, the source gives them in different places.

Tests used:
plasma protein = conditions: cited from earlier work; for fp_Human (free fraction in plasma): human, collected value, median if multiple values were reported, ref: Table S1
[1] = human, cited from earlier work
[2] = human
[3] = cited from earlier work
[4] = intravenous, median if multiple values were reported, ref numbers in Table S1
[5] = human, intravenous, median if multiple values were reported, ref numbers in Table S1
[6] = intravenous, median if multiple values reported, Reference of Table S1

| Structure (SMILES) | in vivo Vd_(L/kg)_Human [1, 4] [L/kg] | in vivo CL_(L/hr/kg)_Human [3, 5] [L/h/kg] | further results |
| --- | --- | --- | --- |
| CC(=O)Nc1ccc(O)cc1 [Acetaminophen] | 1.000 |  | fp_Human (free fraction in plasma) (plasma protein): 0.710 |
| CN(C)Cc1nnc2n1-c1ccc(Cl)cc1C(c1ccccc1)=NC2 [Adinazolam] |  | 0.372 | in vivo MRT_(hr)_Human [2]: 2.634 h; in vivo Vd_(L/kg)_Human ([1]; in vivo, iv): 0.980 L/kg |
| Oc1ncnc2[nH]ncc12 [Allopurinol] | 0.580 |  |  |
| Cc1nnc2n1-c1ccc(Cl)cc1C(c1ccccc1)=NC2 [Alprazolam] | 0.800 | 0.044 |  |
| C=CCc1ccccc1OCC(O)CNC(C)C (stereo not shown) [Alprenolol] | 3.200 | 0.900 |  |
| CCCCc1oc2ccccc2c1C(=O)c1cc(I)c(OCCN(CC)CC)c(I)c1 [Amiodarone] |  | 0.114 |  |
| CN(C)CCC=C1c2ccccc2CCc2ccccc21 [Amitriptyline] | 8.700 | 0.593 |  |
| CC1(C)S[C@@H]2[C@H](NC(=O)[C@H](N)c3ccc(O)cc3)C(=O)N2[C@H]1C(=O)O [Amoxicillin] | 0.250 | 0.198 |  |
| C[C@@H](O[C@H]1OCCN(Cc2n[nH]c(=O)[nH]2)[C@H]1c1ccc(F)cc1)c1cc(C(F)(F)F)cc(C(F)(F)F)c1 [Aprepitant] | 0.940 |  |  |
| CC(C)NCC(O)COc1ccc(CC(N)=O)cc1 (stereo not shown) [Atenolol] |  | 0.150 |  |
| C[C@H]1C[C@H]2[C@@H]3CCC4=CC(=O)C=C[C@]4(C)[C@@]3(F)[C@@H](O)C[C@]2(C)[C@@]1(O)C(=O)CO [Betamethasone] |  | 0.168 |  |
| OC(CCN1CCCCC1)(c1ccccc1)C1CC2C=CC1C2 (stereo not shown) [Biperiden] | 9.100 |  | in vivo MRT_(hr)_Human [2]: 12.639 h |
| CC(C)NCC(O)COc1ccc(COCCOC(C)C)cc1 (stereo not shown) [Bisoprolol] | 2.400 | 0.222 | fp_Human (free fraction in plasma) (plasma protein): 0.830 |
| CCCC1O[C@@H]2C[C@H]3[C@@H]4CCC5=CC(=O)C=C[C@]5(C)[C@H]4[C@@H](O)C[C@]3(C)[C@]2(C(=O)CO)O1 (stereo partly shown) [Budesonide] | 3.900 | 1.200 |  |
| COc1ccccc1OCCNCC(O)COc1cccc2[nH]c3ccccc3c12 (stereo not shown) [Carvedilol] | 1.300 | 0.495 |  |
| C=CC1=C(C(=O)O)N2C(=O)[C@@H](NC(=O)/C(=N\OCC(=O)O)c3csc(N)n3)[C@H]2SC1 [Cefixime] | 0.240 | 0.060 |  |
| CCC[C@@H]1C[C@@H](C(=O)N[C@@H]([C@H]2O[C@H](SC)[C@H](O)[C@@H](O)[C@H]2O)[C@H](C)Cl)N(C)C1 [Clindamycin] |  | 0.270 |  |
| CN1CCN(C2=Nc3cc(Cl)ccc3Nc3ccccc32)CC1 [Clozapine] | 1.600 |  | in vivo MRT_(hr)_Human [2]: 10.667 h |
| CNCCCN1c2ccccc2CCc2ccccc21 [Desipramine] | 15.000 |  | in vivo MRT_(hr)_Human [2]: 22.727 h |
| C[C@@H]1C[C@H]2[C@@H]3CCC4=CC(=O)C=C[C@]4(C)[C@@]3(F)[C@@H](O)C[C@]2(C)[C@@]1(O)C(=O)CO [Dexamethasone] |  | 0.198 |  |

| Structure (SMILES) | in vivo Vd_(L/kg)_Human [1, 4] [L/kg] | in vivo CL_(L/hr/kg)_Human [3, 5] [L/h/kg] | further results |
| --- | --- | --- | --- |
| CN1C(=O)CN=C(c2ccccc2)c2cc(Cl)ccc21 [Diazepam] |  | 0.023 |  |
| O=c1[nH]cnc2c1ncn2[C@H]1CC[C@@H](CO)O1 [Didanosine] |  | 0.660 | in vivo MRT_(hr)_Human [2]: 1.197 h |
| COc1cc2nc(N3CCN(C(=O)C4COc5ccccc5O4)CC3)nc(N)c2cc1OC (stereo not shown) [Doxazosin] | 1.300 |  | in vivo MRT_(hr)_Human [2]: 13.542 h |
| CCN(CC)C(=O)/C(C#N)=C/c1cc(O)c(O)c([N+](=O)[O-])c1 [Entacapone] | 0.270 | 0.720 |  |
| CC[C@H]1OC(=O)[C@H](C)[C@@H](O[C@H]2C[C@@](C)(OC)[C@@H](O)[C@H](C)O2)[C@H](C)[C@@H](O[C@@H]2O[C@H](C)C[C@H](N(C)C)[C@H]2O)[C@](C)(O)C[C@@H](C)C(=O)[C@H](C)[C@@H](O)[C@]1(C)O [Erythromycin] |  |  | fp_Human (free fraction in plasma) (plasma protein): 0.220 |
| CC(C)(C)NC(=O)[C@H]1CC[C@H]2[C@@H]3CC[C@H]4NC(=O)C=C[C@]4(C)[C@H]3CC[C@]12C [Finasteride] | 1.100 |  | in vivo MRT_(hr)_Human [2]: 7.639 h |
| O=C(NCC1CCCCN1)c1cc(OCC(F)(F)F)ccc1OCC(F)(F)F (stereo not shown) [Flecainide] | 6.100 |  | in vivo MRT_(hr)_Human [2]: 20.748 h |
| CCOC(=O)c1ncn2c1CN(C)C(=O)c1cc(F)ccc1-2 [Flumazenil] |  | 0.960 |  |
| CC1(C)O[C@@H]2C[C@H]3[C@@H]4C[C@H](F)C5=CC(=O)C=C[C@]5(C)[C@H]4[C@@H](O)C[C@]3(C)[C@]2(C(=O)CO)O1 [Flunisolide] |  | 0.720 | in vivo MRT_(hr)_Human [2]: 2.500 h |
| O=c1[nH]cc(F)c(=O)[nH]1 [Fluorouracil] |  |  | fp_Human (free fraction in plasma) (plasma protein): 0.770 |
| CC(C)n1c(/C=C/C(O)CC(O)CC(=O)O)c(-c2ccc(F)cc2)c2ccccc21 (stereo not shown) [Fluvastatin] | 0.420 |  | in vivo MRT_(hr)_Human [2]: 0.438 h |
| O=C(O)P(=O)(O)O [Foscarnet] | 0.500 | 0.126 |  |
| NS(=O)(=O)c1cc(C(=O)O)c(NCc2ccco2)cc1Cl [Furosemide] |  | 0.096 |  |
| O=C(/C=C/c1c(C(=O)O)[nH]c2cc(Cl)cc(Cl)c12)Nc1ccccc1 [Gavestinel] |  |  | fp_Human (plasma protein): 0.002 |
| CCC1=C(C)CN(C(=O)NCCc2ccc(S(=O)(=O)NC(=O)N[C@H]3CC[C@H](C)CC3)cc2)C1=O [Glimepiride] | 0.190 | 0.034 | fp_Human (free fraction in plasma) (plasma protein): 0.028 |
| CC#CCC(C)[C@H](O)/C=C/[C@@H]1[C@H]2C/C(=C/CCCC(=O)O)C[C@H]2C[C@H]1O (stereo partly shown) [Iloprost] | 0.385 | 0.960 | fp_Human (free fraction in plasma) (plasma protein): 0.400 |
| CN(C)CCCN1c2ccccc2CCc2ccccc21 [Imipramine] | 12.000 |  |  |
| CCC(C)n1ncn(-c2ccc(N3CCN(c4ccc(OCC5COC(Cn6cncn6)(c6ccc(Cl)cc6Cl)O5)cc4)CC3)cc2)c1=O (stereo not shown) [Itraconazole] | 7.400 | 0.306 |  |
| CC(CCc1ccccc1)NCC(O)c1ccc(O)c(C(N)=O)c1 (stereo not shown) [Labetalol] |  | 1.380 | fp_Human (free fraction in plasma) (plasma protein): 0.500 |
| Cc1c(OCC(F)(F)F)ccnc1C[S+]([O-])c1nc2ccccc2[nH]1 (stereo not shown) [Lansoprazole] | 0.280 | 0.319 |  |

| Structure (SMILES) | in vivo Vd_(L/kg)_Human [1, 4] [L/kg] | in vivo CL_(L/hr/kg)_Human [3, 5] [L/h/kg] | further results |
| --- | --- | --- | --- |
| CCN(CC)CC(=O)Nc1c(C)cccc1C [Lidocaine] |  | 0.756 |  |
| CC[C@H](C)C(=O)O[C@H]1C[C@@H](C)C=C2C=C[C@H](C)[C@H](CC[C@@H]3C[C@@H](O)CC(=O)O3)[C@H]21 [Lovastatin] | 0.870 | 0.432 |  |
| CN(c1nc2ccccc2s1)C1CCN(C[C@H](O)COc2ccc(F)c(F)c2)CC1 [Lubeluzole] |  | 0.102 | fp_Human (free fraction in plasma) (plasma protein): 0.003 |
| CN1CC[C@]23c4c5ccc(O)c4O[C@H]2[C@@H](O)C=C[C@H]3[C@H]1C5 [Morphine] |  | 1.500 |  |
| C=CCN1CC[C@]23c4c5ccc(O)c4O[C@H]2C(=O)CC[C@@]3(O)[C@H]1C5 [Naloxone] | 1.700 |  |  |
| COc1ccc2cc([C@H](C)C(=O)O)ccc2c1 [Naproxen] |  | 0.004 |  |
| Cc1ccnc2c1NC(=O)c1cccnc1N2C1CC1 [Nevirapine] | 1.300 | 0.018 |  |
| COCCOC(=O)C1=C(C)NC(C)=C(C(=O)OC(C)C)C1c1cccc([N+](=O)[O-])c1 (stereo not shown) [Nimodipine] | 1.000 |  | in vivo MRT_(hr)_Human [2]: 1.111 h |
| COc1ccc2[nH]c([S+]([O-])Cc3ncc(C)c(OC)c3C)nc2c1 (stereo not shown) [Omeprazole] | 0.240 | 0.504 |  |
| O=C1Nc2ccc(Cl)cc2C(c2ccccc2)=NC1O (stereo not shown) [Oxazepam] |  |  | in vivo CL_(L/hr/kg)_Human ([3]; in vivo, iv): 0.066 L/h/kg |
| COc1ccc2c3c1O[C@H]1C(=O)CC[C@@]4(O)[C@@H](C2)N(C)CC[C@]314 [Oxycodone] |  | 0.366 | fp_Human (free fraction in plasma) (plasma protein): 0.550 |
| CCN1CCN(C(=O)N[C@@H](C(=O)N[C@@H]2C(=O)N3[C@@H]2SC(C)(C)[C@@H]3C(=O)O)c2ccccc2)C(=O)C1=O [Piperacillin] |  |  | in vivo MRT_(hr)_Human [2]: 1.125 h; in vivo Vd_(L/kg)_Human [1, 6]: 0.270 L/kg |
| CCN(CC)CCNC(=O)c1ccc(N)cc1 [Procainamide] |  |  | fp_Human (plasma protein): 0.840 |
| O=C(c1ccc(OCCN2CCCCC2)cc1)c1c(-c2ccc(O)cc2)sc2cc(O)ccc12 [Raloxifene] |  |  | in vivo MRT_(hr)_Human [2]: 41.837 h; in vivo Vd_(L/kg)_Human [1, 6]: 36.900 L/kg |
| Cc1nc2n(c(=O)c1CCN1CCC(c3noc4cc(F)ccc34)CC1)CCCC2 [Risperidone] |  |  | fp_Human (plasma protein; free fraction in human plasma, median if multiple values reported, Reference of Table S1): 0.100 |
| CCCc1nn(C)c2c(=O)[nH]c(-c3cc(S(=O)(=O)N4CCN(C)CC4)ccc3OCC)nc12 [Sildenafil] |  |  | in vivo MRT_(hr)_Human [2]: 2.564 h; in vivo Vd_(L/kg)_Human [1, 6]: 1.400 L/kg |
| Cc1cc(NS(=O)(=O)c2ccc(N)cc2)no1 [Sulfamethoxazole] |  |  | in vivo CL_(L/hr/kg)_Human ([3]; human, intravenous, median if multiple values reported, Reference of Table S1): 0.020 L/h/kg |
| CCCCNC(=O)NS(=O)(=O)c1ccc(C)cc1 [Tolbutamide] |  |  | in vivo MRT_(hr)_Human [2]: 9.524 h; in vivo Vd_(L/kg)_Human [1, 6]: 0.120 L/kg |
| CCN(C(C)=O)c1cccc(-c2ccnc3c(C#N)cnn23)c1 [Zaleplon] |  |  | in vivo MRT_(hr)_Human [2]: 1.354 h; in vivo Vd_(L/kg)_Human ([1]; in vivo, iv): 1.300 L/kg |
